Twelve compounds from patent US9328138B2 (priority 2011, dated 2016) can be followed below.

Assay [1] addresses HCV NS3 protease genotype 3a (3A-1) (Hepatitis C virus genotype 3a, UniProt Q81258). The experiment in a line: HCV NS3 protease time-resolved fluorescence (TRF) assay, genotype 3a. The format is biochemical. The conditions noted are these: Ki 3a. The procedure, abridged: (§1)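 Assay buffer: 50 mM HEPES pH 7.5, 150 mM NaCl, 0.1% PEG 8000, 0.15% Triton X-100. Ten-minute enzyme–inhibitor preincubation; substrate at 25 nM final; 6 h reaction, room temperature; signal/background set at 5-20 by enzyme amount.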

For assay [2], the target named is T1, HCV genotype 1b (BK) NS3 modified enzyme with a R155K mutation (Hepatitis C virus genotype 1b, UniProt P26663, R1181K).
T1 construct: HCV genotype 1b (BK) NS3 modified enzyme
The experiment in a line: HCV NS3 protease time-resolved fluorescence (TRF) assay, genotype 1b R155K. The format is biochemical. Conditions: Ki 1b R155K. The procedure, abridged:
as §1

[3] abbreviates: first of two values printed in the cell (not explained).
Where [4] appears, read: second of two values printed in the cell (not explained).
The mark [5] stands for this setting: genotype 1b (BK) NS3 R155K, single value.

Broadly, the Ki is a measure of affinity in units of concentration, obtained from inhibition or displacement. Low readings indicate higher affinity, high ones lower affinity. `C=C[C@@H]1C[C@]1(NC(=O)[C@@H]1C[C@@H]2CN1C(=O)[C@H](C(C)(C)C)NC(=O)O[C@@H]1C[C@H]1CCCCCc1c(nc3ccccc3c1OC1CC3CCC(C1)N3C(=O)OC(C)(C)C)O2)C(=O)NS(=O)(=O)C1(C)CC1` (single isomer, unassigned) [Example 273]: the Ki in assay [1] came out at 68 nM; in assay [2] (setting [3]) it was 0.1 nM; in assay [2] (setting [4]), 1.85 nM.
Take `C=C[C@@H]1C[C@]1(NC(=O)[C@@H]1C[C@@H]2CN1C(=O)[C@H](C1CCCCC1)NC(=O)O[C@@H]1C[C@H]1CCCCCc1c(nc3ccccc3c1OC1CCN(C(=O)OC(C)(C)C)CC1)O2)C(=O)NS(=O)(=O)C1(C)CC1` [Example 235, tert-butyl 4-{[(1aR,5S,8S,10R,22aR)-5-cyclohexyl-8-{[(1R,2S)-2-ethenyl-1-{[(1-methylcyclopropyl)sulfonyl]carbamoyl}cyclopropyl]carbamoyl}-3,6-dioxo-1,1a,3,4,5,6,9,10,18,19,20,21,22,22a-tetradecahydro-8H-7,10-methanocyclopropa[18,19][1,10,3,6]dioxadiazacyclononadecino[11,12-b]quinolin-17-yl]oxy}piperidine-1-carboxylate]: the Ki in assay [1] was found to be 203 nM; in assay [2] (setting [3]), 0.53 nM; in assay [2] (setting [4]) it was 4.36 nM.
For `C=C[C@@H]1C[C@]1(NC(=O)[C@@H]1C[C@@H]2CN1C(=O)[C@H](C1(C)CCCCC1)NC(=O)O[C@@H]1C[C@H]1CCCCCc1c(nc3ccccc3c1OC1CCN(C(=O)OC(C)(C)C)CC1)O2)C(=O)NS(=O)(=O)C1(C)CC1` [Example 267, tert-butyl 4-{[(1aR,5S,8S,10R,22aR)-8-{[(1R,2S)-2-ethenyl-1-{[(1-methylcyclopropyl)sulfonyl]carbamoyl}cyclopropyl]carbamoyl}-5-(1-methylcyclohexyl)-3,6-dioxo-1,1a,3,4,5,6,9,10,18,19,20,21,22,22a-tetradecahydro-8H-7,10-methanocyclopropa[18,19][1,10,3,6]dioxadiazacyclononadecino[11,12-b]quinolin-17-yl]oxy}piperidine-1-carboxylate] the same measures were 56 nM, 0.114 nM and 4.6 nM.
For the compound `C=C[C@@H]1C[C@]1(NC(=O)[C@@H]1C[C@@H]2CN1C(=O)[C@H](C(C)(C)C)NC(=O)O[C@@H]1C[C@H]1CCCCCc1c(nc3ccccc3c1OCCCN1CCCCC1)O2)C(=O)NS(=O)(=O)C1(C)CC1` [Example 115, (1aR,5S,8S,10R,22aR)-5-tert-butyl-N-[(1R,2S)-2-ethenyl-1-{[(1-methylcyclopropyl)sulfonyl]carbamoyl}cyclopropyl]-3,6-dioxo-17-[3-(piperidin-1-yl)propoxy]-1,1a,3,4,5,6,9,10,18,19,20,21,22,22a-tetradeca hydro-8H-7,10-methano cyclopropa[18,19][1,10,3,6] dioxadiazacyclononadecino [11,12-b]quinoline-8-carboxamide], the Ki in assay [1] was determined as 0.25 nM; in assay [2] (setting [5]), 0.057 nM.
For `C=C[C@@H]1C[C@]1(NC(=O)[C@@H]1C[C@@H]2CN1C(=O)[C@H](C(C)(C)C)NC(=O)O[C@@H]1CCC[C@H]1CC/C=C/Cc1c(nc3ccccc3c1OCCCN1CCCCC1)O2)C(=O)NS(=O)(=O)C1CC1` [Example 45, (3aR,7S,10S,12R,21E,24aS)-7-tert-butyl-N-{(1R,2S)-1-[(cyclopropylsulfonyl)carbamoyl]-2-ethenylcyclopropyl}-5,8-dioxo-19-[3-(piperidin-1-yl)propoxy]-1,2,3,3a,5,6,7,8,11, 12,20,23,24,24a-tetradecahydro-10H-9,12-methanocyclopenta[18,19][1,10,3,6]dioxa diazacyclononadecino[11,12-b]quinoline-10-carboxamide] the same measures were 0.5 nM and 0.1 nM.
For the compound `C=C[C@@H]1C[C@]1(NC(=O)[C@@H]1C[C@@H]2CN1C(=O)[C@H](C(C)(C)C)NC(=O)O[C@@H]1CCC[C@H]1CCCCCc1c(nc3ccccc3c1OCCN1CCOCC1)O2)C(=O)NS(=O)(=O)N1CCCC1` [Example 109, (3aR,7S,10S,12R,24aR)-7-tert-butyl-N-{(1R,2S)-2-ethenyl-1-[(pyrrolidin-1-ylsulfonyl)carbamoyl]cyclopropyl}-19-[2-(morpholin-4-yl)ethoxy]-5,8-dioxo-1,2,3,3a,5,6,7,8,11,12,20,21,22,23,24,24a-hexadecahydro-10H-9,12-methano cyclopenta[18,19][1,10,3,6] dioxadiazacyclononadecino [11,12-b]quinoline-10-carboxamide], the Ki in assay [1] amounted to 122 nM; in assay [2] (setting [5]) it was 4.1 nM.
`CC1(S(=O)(=O)NC(=O)[C@@]23C[C@H]2/C=C\CCCCC[C@@H]2NC(=O)O[C@@H]4C[C@H]4CCC/C=C/c4c(nc5ccccc5c4OCCCN4CCOCC4)O[C@@H]4C[C@@H](C(=O)N3)N(C4)C2=O)CC1` [Example 298, (1aR,5S,11Z,12aS,13aR,16S,19R,27E, 31aR)-N-[(1-methylcyclopropyl)sulfonyl]-26-[3-(morpholin-4-yl)propoxy]-3,15,33-trioxo-1,1a,3,4,5,6,7,8,9,10,12a,13,15,16,18,19,29, 30,31,31a-icosahydro-5,17:16,19-dimethanodicyclopropa[12,13:28,29][1,20,3,14,17]dioxatriazacyclononacosino[21,22-b]quinoline-13a(14H)-carboxamide]: the inhibitory constant (Ki) amounted to 4 nM in assay [1] and 0.49 nM in assay [2] (setting [5]).
Consider `C=C[C@@H]1C[C@]1(NC(=O)[C@@H]1C[C@@H]2CN1C(=O)[C@H](C1CCCC1)NC(=O)O[C@@H]1CCC[C@H]1CC/C=C/Cc1c(nc3ccccc3c1OCCN1CC3(CCC3)C1)O2)C(=O)NS(=O)(=O)C1(C)CC1` [Example 86, (3aR,7S,10S,12R,21E,24aS)-19-[2-(2-azaspiro[3.3]hept-2-yl)ethoxy]-7-cyclopentyl-N-[(1R,2S)-2-ethenyl-1-{[(1-methylcyclopropyl)sulfonyl]carbamoyl}cyclopropyl]-5,8-dioxo-1,2,3,3a,5,6,7,8,11,12,20,23,24,24a-tetradecahydro-10H-9,12-methanocyclopenta[18,19] [1,10,3,6]dioxadiazacyclononadecino [11,12-b]quinoline-10-carboxamide], for which the figures for the Ki in assay [1] and in assay [2] (setting [5]) were 4.4 nM and 0.23 nM, respectively.
Regarding `C=C[C@@H]1C[C@]1(NC(=O)[C@@H]1C[C@@H]2CN1C(=O)[C@H](C(C)(C)C)NC(=O)O[C@@H]1C[C@H]1CCCCCc1c(nc3ccccc3c1OCCCN1CCCC1=O)O2)C(=O)NS(=O)(=O)C1(C)CC1` [Example 118, (1aR,5S,8S,10R,22aR)-5-tert-butyl-N-[(1R,2S)-2-ethenyl-1-{[(1-methylcyclopropyl)sulfonyl]carbamoyl}cyclopropyl]-3,6-dioxo-17-[3-(2-oxopyrrolidin-1-yl)propoxy]-1,1a,3,4,5,6,9,10,18,19,20,21,22,22a-tetradeca hydro-8H-7,10-methano cyclopropa[18,19][1,10,3,6] dioxadiazacyclononadecino [11,12-b]quinoline-8-carboxamide], the Ki in assay [1] was 0.89 nM; in assay [2] (setting [5]), 0.066 nM.
For `C=C[C@@H]1C[C@]1(NC(=O)[C@@H]1C[C@@H]2CN1C(=O)[C@H](C(C)(C)C)NC(=O)O[C@@H]1C[C@H]1CCCCCc1c(nc3c(OC)cccc3c1OCCCn1ccnc1)O2)C(=O)NS(=O)(=O)C1(C)CC1` [Example 144, (1aR,5S,8S,10R,22aR)-5-tert-butyl-N-[(1R,2S)-2-ethenyl-1-{[(1-methylcyclopropyl)sulfonyl]carbamoyl}cyclopropyl]-17-[3-(1H-imidazol-1-yl)propoxy]-13-methoxy-3,6-dioxo-1,1a,3,4,5,6,9,10,18,19,20,21,22,22a-tetradecahydro-8H-7,10-methanocyclopropa[18,19][1,10,3,6]dioxadiazacyclononadecino[11,12-b]quinoline-8-carboxamide], the Ki stood at 6.2 nM in assay [1] and 0.61 nM in assay [2] (setting [5]).
In the case of `C=C[C@@H]1C[C@]1(NC(=O)[C@@H]1C[C@@H]2CN1C(=O)[C@H](C1(C)CCCCC1)NC(=O)O[C@@H]1C[C@H]1CCCCCc1c(nc3ccccc3c1OC1CC3CCC(C1)N3C)O2)C(=O)NS(=O)(=O)C1(C)CC1` (stereo partly drawn) [Example 263, (1aR,5S,8S,10R,22aR)—N-[(1R,2S)-2-ethenyl-1-{[(1-methylcyclopropyl)sulfonyl]carbamoyl}cyclopropyl]-17-[(8-methyl-8-azabicyclo[3.2.1]oct-3-yl)oxy]-5-(1-methylcyclohexyl)-3,6-dioxo-1,1a,3,4,5,6,9,10,18,19,20,21,22,22a-tetradecahydro-8H-7,10-methanocyclopropa[18,19][1,10,3,6]dioxadiazacyclononadecino[11,12-b]quinoline-8-carboxamide], the Ki in assay [1] turned out to be 0.041 nM; in assay [2] (setting [3]), 0.006 nM; in assay [2] (setting [4]) it was 0.011 nM.
In the case of `C=C[C@@H]1C[C@]1(NC(=O)[C@@H]1C[C@@H]2CN1C(=O)[C@H](C(C)(C)C)NC(=O)O[C@@H]1C[C@H]1CCCCCc1c(nc3ccccc3c1OCCCN(CC)CCc1nc3ccccc3[nH]1)O2)C(=O)NS(=O)(=O)C1(C)CC1` [Example 192, (1aR,5S,8S,10R,22aR)-17-(3-{[2-(1H-benzimidazol-2-yl)ethyl](ethyl)amino}propoxy)-5-tert-butyl-N-[(1R,2S)-2-ethenyl-1-{[(1-methylcyclopropyl)sulfonyl]carbamoyl}cyclopropyl]-3,6-dioxo-1,1a,3,4,5,6,9,10,18,19,20,21, 22,22a-tetradecahydro-8H-7,10-methanocyclopropa[18,19][1,10,3,6] dioxadiazacyclononadecino[11,12-b] quinoline-8-carboxamide], the values for the Ki in assay [1] and in assay [2] (setting [5]) were 0.71 nM and 0.1 nM, respectively.
